Results as given in patent US4882234A, “Storage-stable porphin compositions and a method for their manufacture” (Healux, Inc., priority 1986, dated 1989).

Test system: albino mouse ear vasculature
Experiment: Phototoxicity to normal skin vasculature, Evans blue assay in albino mouse ear
Parameters: species or system Swiss-Webster mice
Details: in vivo; for M.E.D. (minimum effective dose to damage ear vasculature): 1440 min
Excerpt: The major side effect of hematoporphyrin derivative preparations in tumor phototherapy is the extended phototoxicity to normal skin (by way of the exposed skin vasculature) for a month or longer after injection of therapeutic doses.
The Evans blue assay method assumes that the primary site of photodamage is the vascular system and uses Evans blue (colloidal dye) extravasation through damaged vascular wall into surrounding tissues to measure the relative phototoxicity as the minimum effective dose (M.E.D.) of photosensitizer necessary to cause a statistically significant increase in tissue Evans blue content. The higher the dose of photosensitizer required the lower the phototoxicity. […] This is possibly due in site aggregation and inhibition of the photosensitized reaction.

Row | Substance | Relative phototoxicity at higher doses | Evans Blue Increase | M.E.D. (minimum effective dose to damage ear vasculature)
1 | Photofrin | relative phototoxicity is decreased at higher doses | – | –
2 | tetraphenyl porphyrin sulfonate [TPPS] | – | 84% | 2.5 mg/kg
3 | zinc phthalocyanine sulfonate [ZPS] | – | 30% | 22 mg/kg
